According to patent US20250352524A1, “PREVENTION OF METASTATIC OUTGROWTH USING TEAD INHIBITORS” (Georgetown University, priority 2024, published 2025):
“Also recorded” adds a separate entry of the source.

Tested on: E0771 mammary carcinoma cells
Assay: E0771 mammary fat pad tumors in C57/BL6 mice, lung metastasis and lung immune profiling
Assay type: in vivo
Settings: for primary tumor growth / size: 30 mg/kg daily oral gavage from palpable tumors (3 weeks), resection at week 4; for lung metastases (number of mice / incidence): 30 mg/kg daily vs vehicle, H&E lung sections
Procedure: In this study, E0771 mammary carcinoma cells were injected into the MFP of C57/BL6 mice. Treatment for this group started after tumors were palpable at 3-4 weeks. Similarly, no effect was observed on the primary tumor growth, yet lung metastases were decreased (FIG. 3, Panels A and B). […] Additionally, lung infiltrating CD8+ T-cells increased in iTEAD-treated mice (FIG. 3, Panel D).
E0771 cells were injected into the mammary fat pad of C57BL/6 mice (Johnstone et al., 2015). When primary tumors became palpable at 3 weeks, mice were treated daily with VT107 or vehicle control. Mice weights were monitored throughout treatment (FIG. 8, Panel B). Primary tumors were surgically resected at week 4 and mice were euthanized at week 6 to inspect lungs for metastases (FIG. 9, Panel A)
There was no difference in the primary tumor size between treatment groups nor the size of recurrent tumors at 6 weeks (FIG. 9, Panel B and FIG. 8, Panel C). […] To investigate tissue specific effects, gene expression changes between treatment groups in lung and tumor tissues were analyzed by RNA-sequencing. […] To reduce the impact of TEAD inhibition on cancer cell intrinsic function such as dissemination and invasion, 4T1, a triple negative mouse mammary carcinoma cell line (Pulaski & Ostrand-Rosenberg, 2000), was injected into the tail vein of BALB/c mice that directly seed into the lung tissue. A reduction in lung metastases, as well as the suppression of inflammatory pathways, were observed (FIG. 9, Panels E and F, and FIG. 8, Panel F).
Formalin-fixed, paraffin embedded (FFPE) lung tissue sections were stained with hematoxylin and eosin. Immunohistochemistry staining was performed on FFPE tumor and lung tissue sections. Slides were deparaffinized in xylene and rehydrated following a series of ethanol washes. Heat-induced antigen retrieval was then performed by placing slides in warmed sodium citrate buffer (pH 6.0) (Invitrogen, 005000) in a pre-heated steamer for 20 minutes. Slides were cooled at room temperature for an additional 20 minutes, prior to quenching endogenous peroxidase activity using 3% hydrogen peroxide buffer (Fisher, BP2633500) for 10 minutes. Next, slides were incubated overnight at 4° C. with either anti-CD8 (Cell Signaling Technology, #98941), anti-CD68 (Abcam, ab303565), anti-CD206 (Cell Signaling Technology, #24595), or anti-F480 (Cell Signaling Technology, #70076). Following PBS washes, the slides are then stained with a biotinylated secondary antibody using the VECTASTAIN Elite ABC-HRP Kit according to the user's manual (Vector Laboratories, PK-6101). Positive brown staining was produced by applying ImmPACT DAB EqV Substrate Kit (Vector Laboratories, SK-4103) to the slides, which were then counterstained with hematoxylin (Sigma, MHS16). Images were captured using the Olympus BX40 microscope, and positive staining was quantified manually. Immunofluorescent staining was performed on lung tissue sections. Slides were baked at 60°, deparaffinized in xylene, rehydrated, washed in DI water and incubated with 10% neutral buffered formalin (NBF) for an additional 20 minutes to increase tissue-slide retention. Epitope retrieval/microwave treatment (MWT) for all antibodies was performed by boiling slides in Antigen Retrieval buffer 6 (AR6 pH6, Akoya AR6001KT). Protein blocking is performed using antibody diluent/blocking buffer (Akoya, ARD1001EA) for 10 minutes at room temperature. Slides were incubated with Luciferase antibody (Sigma, #L0159) for 1 hour and OPAL Fluoresce 620 then counterstained with spectral DAPI (Akoya FP1490) for 5 min and mounted with ProLong Diamond Antifade (ThernoFisher, P36961). Slides were scanned at 10× magnification using the Vectra 3.0 Automated Quantitative Pathology Imaging System (PerkinElmer/Akoya).
Single cell suspensions were washed 2× with PBS. […]

[1] = flow cytometry, tumor bearing mice
[2] = flow cytometry, tumor bearing mice, listed as iTEAD

VT107 was tested, and the “primary tumor growth / size” value was “no difference”, the “primary tumor growth / size” value (listed as iTEAD) was “no effect; also recorded: no change” and the “lung metastases (number of mice / incidence)” value was “significantly less incidence”. For the same substance, the “lung metastases (number of mice / incidence)” value (listed as iTEAD) was “decreased; also recorded: reduced”, the “number of CD8+ T-cells in lung tissue” value (CD8 immunohistochemistry, tumor bearing mice, listed as iTEAD) was “increase in the number and infiltration; also recorded: significantly greater” and the “CD8+ T-cells in lung metastatic lesions” value (CD8 immunohistochemistry, listed as iTEAD) was “infiltrated into lung metastases”. The “number of gene changes due to treatment, lungs compared to primary tumors” value (RNA-sequencing) was “higher number”, the “size of recurrent tumors” value (at 6 weeks, 2 weeks after resection) was “no difference” and the “CD86 (M1-like) in the lung macrophage population” value [1] was “significantly enriched”. For the same substance, the “CD86/CD206 shift in the alveolar macrophage population” value [1] was “also significant”, the “CD206 (M2-like) in the lung macrophage population” value [1] was “significantly reduced” and the “infiltrating macrophages / monocytes in the lungs” value [2] was “significant decrease”. For the same substance, the “lung infiltrating CD8+ T-cells” value [2] was “increased; also recorded: higher numbers”, the “resident alveolar macrophages in the lungs” value [2] was “higher frequency; also recorded: significant increase” and the “LXR/RXR anti-inflammatory pathway in lung tissues” value (pathway analysis) was “increased”. The “disease-related inflammation pathways (hepatic and lung fibrosis, cardiac hypertrophy) in lung tissues” value (pathway analysis) was “decrease”.
